# Reference: ChEMBL document CHEMBL4715885, “Novel dual LSD1/HDAC6 inhibitors for the treatment of multiple myeloma” (Bioorg Med Chem Lett, 2021)
# Test system: not listed separately
# Assay: Stability in mouse liver microsomes assessed as parent compound remaining measured after 30 mins
# Format: ADME, Microsome
# Details: liver microsomes, read-out: Stabilty
row,SMILES,remaining at 0.5 h [%]
1,O=C(NO)c1ccc(CCCN2CCC(CN[C@H]3C[C@@H]3c3ccccc3)CC2)cc1,50
2,O=C(NO)c1ccc(CCCN2CCC(CN[C@@H]3C[C@H]3c3ccccc3)CC2)cc1,26
3,O=C(NO)c1ccc(CCCN2CCC(CN[C@H]3C[C@@H]3c3ccc(OCc4ccc(F)cc4)cc3)CC2)cc1 (racemic),56
4,COc1ccc([C@H]2C[C@@H]2NCC2CCN(CCCc3ccc(C(=O)NO)cc3)CC2)cc1 (racemic),91
5,O=C(NO)c1ccc(CCCN2CCc3cc(CN[C@H]4C[C@@H]4c4ccc(F)cc4)ccc3C2)cc1 (racemic),32
6,COc1ccc([C@H]2C[C@@H]2NCc2cn3c(n2)CN(CCCc2ccc(C(=O)NO)cc2)CC3)cc1 (racemic),< 5
7,N#Cc1ccc(-c2ccc([C@H]3C[C@@H]3NCC3CCN(CCCc4ccc(C(=O)NO)cc4)CC3)cc2)cc1 (racemic),75
8,O=C(NO)c1ccc(CCCN2CC(CN[C@H]3C[C@@H]3c3ccccc3)C2)cc1 (racemic),< 5
9,O=C(NO)c1ccc(CCN2CCC(CN[C@H]3C[C@@H]3c3ccccc3)CC2)cc1 (racemic),68
10,O=C(NO)c1csc(CCCN2CCC(CN[C@H]3C[C@@H]3c3ccccc3)CC2)n1 (racemic),95
11,CN(C)CCNC(=O)c1ccc([C@H]2C[C@@H]2NCC2CCN(CCCc3ccc(C(=O)NO)cc3)CC2)cc1 (racemic),36
12,O=C(NO)c1ccc(CCCN2CCC(CN[C@H]3C[C@@H]3c3ccc(C(=O)N4CCOCC4)cc3)CC2)cc1 (racemic),82
13,Cn1cc(-c2ccc([C@H]3C[C@@H]3NCC3CCN(CCCc4ccc(C(=O)NO)cc4)CC3)cc2)cn1 (racemic),66
14,Cc1noc(C)c1-c1ccc([C@H]2C[C@@H]2NCC2CCN(CCCc3ccc(C(=O)NO)cc3)CC2)cc1 (racemic),77

# Test system: not listed separately
# Assay: Stability in human liver microsomes assessed as parent compound remaining measured after 30 mins
# Format: ADME, Microsome
# Details: liver microsomes, read-out: Stabilty
row,SMILES,remaining at 0.5 h [%]
1,O=C(NO)c1ccc(CCCN2CCC(CN[C@H]3C[C@@H]3c3ccccc3)CC2)cc1,51
2,O=C(NO)c1ccc(CCCN2CCC(CN[C@@H]3C[C@H]3c3ccccc3)CC2)cc1,38
3,O=C(NO)c1ccc(CCCN2CCC(CN[C@H]3C[C@@H]3c3ccc(OCc4ccc(F)cc4)cc3)CC2)cc1 (racemic),79
4,COc1ccc([C@H]2C[C@@H]2NCC2CCN(CCCc3ccc(C(=O)NO)cc3)CC2)cc1 (racemic),74
5,O=C(NO)c1ccc(CCCN2CCc3cc(CN[C@H]4C[C@@H]4c4ccc(F)cc4)ccc3C2)cc1 (racemic),72
6,COc1ccc([C@H]2C[C@@H]2NCc2cn3c(n2)CN(CCCc2ccc(C(=O)NO)cc2)CC3)cc1 (racemic),73
7,N#Cc1ccc(-c2ccc([C@H]3C[C@@H]3NCC3CCN(CCCc4ccc(C(=O)NO)cc4)CC3)cc2)cc1 (racemic),76
8,O=C(NO)c1ccc(CCCN2CC(CN[C@H]3C[C@@H]3c3ccccc3)C2)cc1 (racemic),84
9,O=C(NO)c1ccc(CCN2CCC(CN[C@H]3C[C@@H]3c3ccccc3)CC2)cc1 (racemic),77
10,O=C(NO)c1csc(CCCN2CCC(CN[C@H]3C[C@@H]3c3ccccc3)CC2)n1 (racemic),88
11,CN(C)CCNC(=O)c1ccc([C@H]2C[C@@H]2NCC2CCN(CCCc3ccc(C(=O)NO)cc3)CC2)cc1 (racemic),40
12,O=C(NO)c1ccc(CCCN2CCC(CN[C@H]3C[C@@H]3c3ccc(C(=O)N4CCOCC4)cc3)CC2)cc1 (racemic),89
13,Cn1cc(-c2ccc([C@H]3C[C@@H]3NCC3CCN(CCCc4ccc(C(=O)NO)cc4)CC3)cc2)cn1 (racemic),77
14,Cc1noc(C)c1-c1ccc([C@H]2C[C@@H]2NCC2CCN(CCCc3ccc(C(=O)NO)cc3)CC2)cc1 (racemic),82

# Target: T1, Protein deacetylase HDAC6 (Homo sapiens, UniProt Q9UBN7)
# T1 sequence (Q9UBN7 whole entry): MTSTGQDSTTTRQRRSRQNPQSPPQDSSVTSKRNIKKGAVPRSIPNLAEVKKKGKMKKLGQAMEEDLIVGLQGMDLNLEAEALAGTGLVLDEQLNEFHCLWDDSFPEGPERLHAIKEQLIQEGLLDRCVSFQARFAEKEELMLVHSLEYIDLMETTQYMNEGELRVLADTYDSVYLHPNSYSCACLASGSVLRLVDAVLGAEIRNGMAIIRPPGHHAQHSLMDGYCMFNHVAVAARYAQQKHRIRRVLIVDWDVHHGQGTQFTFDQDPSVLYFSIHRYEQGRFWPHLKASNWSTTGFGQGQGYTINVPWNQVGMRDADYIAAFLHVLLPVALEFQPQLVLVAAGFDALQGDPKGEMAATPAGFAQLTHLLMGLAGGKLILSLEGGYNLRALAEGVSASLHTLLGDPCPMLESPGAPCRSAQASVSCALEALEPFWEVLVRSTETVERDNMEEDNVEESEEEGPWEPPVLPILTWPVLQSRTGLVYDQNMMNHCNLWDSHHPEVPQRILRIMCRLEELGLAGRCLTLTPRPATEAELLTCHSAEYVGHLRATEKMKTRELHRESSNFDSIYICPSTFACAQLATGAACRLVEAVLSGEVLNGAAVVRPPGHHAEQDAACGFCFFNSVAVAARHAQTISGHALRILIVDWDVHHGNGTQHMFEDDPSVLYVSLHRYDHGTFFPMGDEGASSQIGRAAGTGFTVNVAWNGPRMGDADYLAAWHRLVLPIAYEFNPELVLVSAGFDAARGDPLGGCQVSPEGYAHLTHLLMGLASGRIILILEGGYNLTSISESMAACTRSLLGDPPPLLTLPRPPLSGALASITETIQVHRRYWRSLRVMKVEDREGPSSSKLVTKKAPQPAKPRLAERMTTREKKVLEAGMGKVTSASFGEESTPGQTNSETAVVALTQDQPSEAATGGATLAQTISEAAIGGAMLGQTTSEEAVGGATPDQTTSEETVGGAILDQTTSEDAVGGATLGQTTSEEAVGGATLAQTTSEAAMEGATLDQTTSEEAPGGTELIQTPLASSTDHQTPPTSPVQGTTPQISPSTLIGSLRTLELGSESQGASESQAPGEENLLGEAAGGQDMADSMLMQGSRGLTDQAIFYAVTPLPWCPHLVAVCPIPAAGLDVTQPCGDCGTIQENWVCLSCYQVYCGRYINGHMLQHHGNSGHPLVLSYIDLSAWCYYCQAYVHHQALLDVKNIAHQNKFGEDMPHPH
# Assay: Inhibition of human HDAC6 (unknown origin) using RHKKAc as substrate by fluorescence method
# Details: read-out: IC50
row,SMILES,IC50 [nM]
1,O=C(NO)c1ccc(CCCN2CCC(CN[C@H]3C[C@@H]3c3ccc(OCc4ccc(F)cc4)cc3)CC2)cc1 (racemic),12
2,COc1ccc([C@H]2C[C@@H]2NCC2CCN(CCCc3ccc(C(=O)NO)cc3)CC2)cc1 (racemic),38
3,COc1ccc([C@H]2C[C@@H]2NCc2cn3c(n2)CN(CCCc2ccc(C(=O)NO)cc2)CC3)cc1 (racemic),28
4,O=C(NO)c1ccc(CCCN2CC(CN[C@H]3C[C@@H]3c3ccccc3)C2)cc1 (racemic),184
5,O=C(NO)c1ccc(CCN2CCC(CN[C@H]3C[C@@H]3c3ccccc3)CC2)cc1 (racemic),490
6,O=C(NO)c1csc(CCCN2CCC(CN[C@H]3C[C@@H]3c3ccccc3)CC2)n1 (racemic),> 10000
7,CN(C)CCNC(=O)c1ccc([C@H]2C[C@@H]2NCC2CCN(CCCc3ccc(C(=O)NO)cc3)CC2)cc1 (racemic),130
8,Cn1cc(-c2ccc([C@H]3C[C@@H]3NCC3CCN(CCCc4ccc(C(=O)NO)cc4)CC3)cc2)cn1 (racemic),66
9,Cc1noc(C)c1-c1ccc([C@H]2C[C@@H]2NCC2CCN(CCCc3ccc(C(=O)NO)cc3)CC2)cc1 (racemic),58

# Target: Lysine-specific histone demethylase 1A (Homo sapiens, UniProt O60341)
# Assay: Inhibition of LSD1 (unknown origin)
# Details: read-out: IC50
row,SMILES,IC50 [nM]
1,O=C(NO)c1ccc(CCCN2CCC(CN[C@H]3C[C@@H]3c3ccc(OCc4ccc(F)cc4)cc3)CC2)cc1 (racemic),4
2,COc1ccc([C@H]2C[C@@H]2NCC2CCN(CCCc3ccc(C(=O)NO)cc3)CC2)cc1 (racemic),6
3,COc1ccc([C@H]2C[C@@H]2NCc2cn3c(n2)CN(CCCc2ccc(C(=O)NO)cc2)CC3)cc1 (racemic),1100
4,N#Cc1ccc(-c2ccc([C@H]3C[C@@H]3NCC3CCN(CCCc4ccc(C(=O)NO)cc4)CC3)cc2)cc1 (racemic),32
5,O=C(NO)c1ccc(CCCN2CC(CN[C@H]3C[C@@H]3c3ccccc3)C2)cc1 (racemic),29
6,O=C(NO)c1ccc(CCN2CCC(CN[C@H]3C[C@@H]3c3ccccc3)CC2)cc1 (racemic),15
7,O=C(NO)c1csc(CCCN2CCC(CN[C@H]3C[C@@H]3c3ccccc3)CC2)n1 (racemic),26
8,CN(C)CCNC(=O)c1ccc([C@H]2C[C@@H]2NCC2CCN(CCCc3ccc(C(=O)NO)cc3)CC2)cc1 (racemic),22
9,O=C(NO)c1ccc(CCCN2CCC(CN[C@H]3C[C@@H]3c3ccc(C(=O)N4CCOCC4)cc3)CC2)cc1 (racemic),22
10,Cn1cc(-c2ccc([C@H]3C[C@@H]3NCC3CCN(CCCc4ccc(C(=O)NO)cc4)CC3)cc2)cn1 (racemic),43
11,Cc1noc(C)c1-c1ccc([C@H]2C[C@@H]2NCC2CCN(CCCc3ccc(C(=O)NO)cc3)CC2)cc1 (racemic),59

# Target: Histone deacetylase 1 (Homo sapiens) (UniProt Q13547)
# Sequence (Q13547 whole entry): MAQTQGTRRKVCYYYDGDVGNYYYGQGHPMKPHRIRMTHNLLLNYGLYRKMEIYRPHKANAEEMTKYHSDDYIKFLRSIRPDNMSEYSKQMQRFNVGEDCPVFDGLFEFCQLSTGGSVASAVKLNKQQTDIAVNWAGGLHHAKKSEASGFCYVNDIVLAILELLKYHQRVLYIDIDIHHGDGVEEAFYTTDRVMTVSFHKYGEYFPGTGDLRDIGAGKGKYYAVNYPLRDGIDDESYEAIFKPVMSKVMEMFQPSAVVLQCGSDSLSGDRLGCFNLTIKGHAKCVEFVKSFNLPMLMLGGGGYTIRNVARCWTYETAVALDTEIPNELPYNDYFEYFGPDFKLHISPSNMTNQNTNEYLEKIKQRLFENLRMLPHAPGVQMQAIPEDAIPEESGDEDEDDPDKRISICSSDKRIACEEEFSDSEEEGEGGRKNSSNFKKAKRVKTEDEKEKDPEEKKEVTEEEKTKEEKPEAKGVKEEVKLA
# Assay: Inhibition of human HDAC1 at 1uM using RHKKAc as substrate by fluorescence method relative to control
# Details: not given
row,SMILES,inhibition [%]
1,O=C(NO)c1ccc(CCCN2CCC(CN[C@@H]3C[C@H]3c3ccccc3)CC2)cc1,57.6
2,O=C(NO)c1ccc(CCCN2CCC(CN[C@H]3C[C@@H]3c3ccc(OCc4ccc(F)cc4)cc3)CC2)cc1 (racemic),-1.79
3,COc1ccc([C@H]2C[C@@H]2NCC2CCN(CCCc3ccc(C(=O)NO)cc3)CC2)cc1 (racemic),46.7
4,COc1ccc([C@H]2C[C@@H]2NCc2cn3c(n2)CN(CCCc2ccc(C(=O)NO)cc2)CC3)cc1 (racemic),26.6
5,O=C(NO)c1ccc(CCCN2CC(CN[C@H]3C[C@@H]3c3ccccc3)C2)cc1 (racemic),0.7
6,O=C(NO)c1ccc(CCN2CCC(CN[C@H]3C[C@@H]3c3ccccc3)CC2)cc1 (racemic),50.7
7,O=C(NO)c1csc(CCCN2CCC(CN[C@H]3C[C@@H]3c3ccccc3)CC2)n1 (racemic),-0.22
8,CN(C)CCNC(=O)c1ccc([C@H]2C[C@@H]2NCC2CCN(CCCc3ccc(C(=O)NO)cc3)CC2)cc1 (racemic),58.1
9,O=C(NO)c1ccc(CCCN2CCC(CN[C@H]3C[C@@H]3c3ccc(C(=O)N4CCOCC4)cc3)CC2)cc1 (racemic),47.6
10,Cn1cc(-c2ccc([C@H]3C[C@@H]3NCC3CCN(CCCc4ccc(C(=O)NO)cc4)CC3)cc2)cn1 (racemic),41.6
11,Cc1noc(C)c1-c1ccc([C@H]2C[C@@H]2NCC2CCN(CCCc3ccc(C(=O)NO)cc3)CC2)cc1 (racemic),35.4

# Test system: MM1.S
# Assay: Antiproliferative activity against human MM1.S cells assessed as reduction in cell viability after 144 hrs
# Format: functional, cell-based
# Details: not given
row,SMILES,EC50 [nM]
1,O=C(NO)c1ccc(CCCN2CCC(CN[C@H]3C[C@@H]3c3ccccc3)CC2)cc1,4
2,O=C(NO)c1ccc(CCCN2CCC(CN[C@@H]3C[C@H]3c3ccccc3)CC2)cc1,3
3,O=C(NO)c1ccc(CCCN2CC(CN[C@H]3C[C@@H]3c3ccccc3)C2)cc1 (racemic),25
4,O=C(NO)c1ccc(CCN2CCC(CN[C@H]3C[C@@H]3c3ccccc3)CC2)cc1 (racemic),28
5,O=C(NO)c1csc(CCCN2CCC(CN[C@H]3C[C@@H]3c3ccccc3)CC2)n1 (racemic),> 10000
6,Cn1cc(-c2ccc([C@H]3C[C@@H]3NCC3CCN(CCCc4ccc(C(=O)NO)cc4)CC3)cc2)cn1 (racemic),7
7,Cc1noc(C)c1-c1ccc([C@H]2C[C@@H]2NCC2CCN(CCCc3ccc(C(=O)NO)cc3)CC2)cc1 (racemic),11
